Experimental data published in publication PMC6100582 (Molecules : A Journal of Synthetic Chemistry and Natural …, 2018).
Values after ≈ are worked out from the molar mass of the structure shown. Read-outs that look alike come from different tables or passages of the source.

How the values were obtained:
[1] = tested on: Acinetobacter baumannii MFBF 10913; test: Antimicrobial susceptibility assay in vitro (MIC determination); format: cell-based; conditions: MFBF10913, serial microdilution, 18 h, 35 °C
Procedure: (§1) Stock solutions of the tested compounds were prepared in DMSO (10 mg/mL). […] The absorbance was recorded at 540 nm. As a positive quality control (susceptibility of strains) tetracycline hydrochloride (TC) (Sigma-Aldrich) was added into wells.

[2] = tested on: Bacillus cereus ATCC 11778; test: as above; format: cell-based; conditions: ATCC11778, serial microdilution, 18 h, 35 °C
Procedure: as §1

[3] = tested on: Bacillus subtilis ATCC 6633; test: as above; format: cell-based; conditions: ATCC6633, serial microdilution, 18 h, 35 °C
Procedure: as §1

[4] = tested on: Streptococcus pneumoniae MFBF 10373; test: as above; format: cell-based; conditions: MFBF10373, serial microdilution, 18 h, 35 °C
Procedure: as §1

[5] = tested on: Mycobacterium tuberculosis H37Ra; test: Antimycobacterial susceptibility assay (MIC determination); format: cell-based; conditions: 168 h, 7 days, 37 °C, alamarBlue
Procedure: At log phase growth, a culture sample (10 mL) was centrifuged at 15,000 rpm/20 min using a bench-top centrifuge (MPW-65R, MPW Med Instruments, Poland). Following removal of the supernatant, the pellet was washed in fresh Middlebrook 7H9GC broth and re-suspended in fresh, ODAC-supplemented MB (10 mL). The turbidity was adjusted to match McFarland standard No. 1 (3 × 10^8 CFU) with MB broth. A further 1:20 dilution of the culture was then performed in MB broth. The antimicrobial susceptibility of M. tuberculosis was investigated in a 96-well plate format. In these experiments, sterile deionised water (300 µl) was added to all outer-perimeter wells of the plates to minimize evaporation of the medium in the test wells during incubation. Each evaluated compound (100 µL) was incubated with M. tuberculosis (100 µl). Dilutions of each compound were prepared in duplicate. For all synthesized compounds, final concentrations ranged from 1000 μg/mL to 8 μg/mL. All compounds were dissolved in DMSO, and subsequent dilutions were made in supplemented MB. […] Following incubation, 10% of alamarBlue (Difco, Lawrence, KS, USA) was mixed into each well, and readings at 570 nm and 600 nm were taken, initially for background subtraction and subsequently after 24 h reincubation. […] For non-interfering compounds, a blue colour in the well was interpreted as the absence of growth, and a pink colour was scored as growth.

[6] = tested on: Bacillus subtilis ATCC 6633; test: Minimum biofilm eradication assay; format: cell-based
Procedure: (§2) MBECs of fumardiamides 4a–f and succindiamides 5a–f were determined as follows. Each well (96-well plate) was filled with 100 µl of bacterial (10^7 CFU/mL) or yeast (5 × 10^6 CFU/mL) suspension. When the inhibition of yeast biofilm formation was tested, the wells were pre-treated with fetal bovine serum (FBS) (250 µl per well). Negative controls contained broth only. Positive controls were performed using standard antimicrobial drugs gentamycin (Gen) and Amph, respectively. […] Following incubation period, each well was aspirated, washed three times and vigorously shaken to remove all non-adherent bacteria/yeast. The remaining attached cells were fixed with methanol (15 min) and the plates were left to dry overnight. Formed biofilm was stained with crystal violet (1%, 5 min). Excess stain was rinsed by placing the plate under running tap water and the plates were left to dry. Adherent cells were solubilized using ethanol. The absorbance was read at 570 nm. The MBEC value represents the lowest dilution of a compound at which bacteria fail to grow.

[7] = tested on: Enterococcus faecalis ATCC 29212; test: Minimum biofilm eradication assay; format: cell-based
Procedure: as §2

Para-Influenza-3 Virus = test: organism not typed; format: cell-based; conditions: Vero cells
Reovirus-1 = test: Antiviral activity in Vero cell cultures; format: cell-based; conditions: Vero cells
Sindbis Virus = test: microbe, parasite or virus in culture; format: cell-based; conditions: Vero
Coxsackie Virus B4 = test: Antiviral activity in Vero cell cultures; format: cell-based; conditions: Enterovirus B, B4, Vero cells
Yellow Fever Virus = test: microbe, parasite or virus in culture; format: cell-based; conditions: Vero
[8] = tested on: HL-60 (acute myeloid leukemia); test: Antiproliferative screening (cytostatic activity); format: cell-based; conditions: Homo sapiens, HL-60; 72 h, IncuCyte imaging; read-out: IC50 HL-60
Procedure: (§3) Cytostatic activity was evaluated in vitro on nine different types of human tumor cell lines: Capan-1, Hap1, HCT-116, and NCI-H460, as well as hematological tumors such as DND-41, HL-60, K-562, MM.1S and Z-138 as described previously. All human tumor cell lines were acquired from the American Type Culture Collection (ATCC, Manassas, VA, USA), except for the DND-41 cell line which was purchased from the Deutsche Sammlung von Mikroorganismen und Zellkulturen (DSMZ Leibniz-Institut, Braunschweig, Germany) and the Hap1 cell line which was purchased from Horizon Discovery (Waterbeach, UK). Capan-1, Hap1, HL-60, K-562, Z-138, MM.1S and DND-41 were cultured in Iscove′s Modified Dulbecco′s Medium (IMDM, Gibco Life Technologies, Gaithersburg, MD, USA), HCT-116 were grown in McCoy′s 5A Medium (Gibco Life Technologies) and NCI-H460 were cultured in RPMI (Gibco Life Technologies). All media were supplemented with 10% FBS (HyClone, GE Healthcare Life Sciences, USA). Adherent cell lines HCT-116, Hap1, NCI-H460, and Capan-1 cells were seeded at a density between 400 and 1250 cells per well, in 384-well, black-walled, clear-bottomed tissue culture plates (Greiner Bio-One, Kremsmünster, Germany). After overnight incubation, cells were treated with test compounds at four different concentrations ranging from 100 to 0.8 µM. Suspension cell lines HL-60, K-562, Z-138, MM.1S, and DND-41 were seeded at densities ranging from 3000 to 10,000 cells per well in 384-well, black-walled, clear-bottomed tissue culture plates containing test compounds at the same four concentrations. The plates were incubated and monitored at 37 °C for 72 h in an IncuCyte (Essen BioScience Inc., Ann Arbor, MI, USA) for real-time imaging. Images were taken every 3 h, with one field image per well under 10× magnification. All compounds were tested with duplicate data points and averaged. […]

[9] = tested on: Hap1 (chronic myeloid leukemia); test: Antiproliferative screening (cytostatic activity); format: cell-based; conditions: Homo sapiens, HAP1; 72 h, IncuCyte imaging; read-out: IC50 Hap1
Procedure: as §3

in vitro = conditions: African green monkey
[10] = MTS, read-out: EC50 Para-Influenza-3 Virus, MTS
[11] = MTS, read-out: EC50 Reovirus-1, MTS
[12] = read-out: EC50 Sindbis Virus, MTS
[13] = MTS, read-out: EC50 Coxsackie Virus B4, MTS
[14] = read-out: EC50 Yellow Fever Virus, MTS
[15] = visual CPE score, read-out: EC50 Para-Influenza-3 Virus, Visual CPE Score
[16] = visual CPE score, read-out: EC50 Reovirus-1, Visual CPE Score
[17] = read-out: EC50 Sindbis Virus, Visual CPE Score
[18] = visual CPE score, read-out: EC50 Coxsackie Virus B4, Visual CPE Score
[19] = read-out: EC50 Yellow Fever Virus, Visual CPE Score

SMILES | MIC [1] [µg/mL] | MIC [2] [µg/mL] | MIC [3] [µg/mL] | MIC [4] [µg/mL] | MIC [5] [µg/mL] | MBEC [6] [µg/mL] | MBEC [7] [µg/mL] | EC50 (Para-Influenza-3 Virus; [10]) [µM] | EC50 (Reovirus-1; [11]) [µM] | EC50 (Sindbis Virus; [12]) [µM] | EC50 (Coxsackie Virus B4; [13]) [µM] | EC50 (Yellow Fever Virus; [14]) [µM] | IC50 [8] [µM] | IC50 [9] [µM] | melting point [°C] | CC50 (in vitro) [µg/mL] | EC50 (Para-Influenza-3 Virus; [15]) [µM] | EC50 (Reovirus-1; [16]) [µM] | EC50 (Sindbis Virus; [17]) [µM] | EC50 (Coxsackie Virus B4; [18]) [µM] | other results
COc1cc(NC(C)CCCNC(=O)/C=C/C(=O)Nc2cccc(F)c2)c2ncccc2c1 (stereo not drawn) [Compound 4a, (2E)-N-(3-Fluorophenyl)-N′-{4-[(6-methoxyquinolin-8-yl)amino]pentyl}but-2-enediamide] | > 100 | > 100 | 50 (≈ 111 µM) | > 100 | 128 (≈ 284 µM) | 50 | 25 | > 50 | > 50 | > 50 | > 50 | > 50 | 5.7 | 19.3 | 203 to 204 | 46.9 (≈ 104 µM) | – | – | – | – | –
COc1cc(NC(C)CCCNC(=O)/C=C/C(=O)Nc2ccc(F)cc2)c2ncccc2c1 (stereo not drawn) [Compound 4b, (2E)-N-(4-Fluorophenyl)-N′-{4-[(6-methoxyquinolin-8-yl)amino]pentyl}but-2-enediamide] | 25 (≈ 55.5 µM) | 25 (≈ 55.5 µM) | 25 (≈ 55.5 µM) | 12.5 (≈ 27.7 µM) | 32 (≈ 71 µM) | 25 | 25 | > 50 | > 50 | > 50 | > 50 | > 50 | > 100 | 66.4 | 226 to 227 | > 50 | – | – | – | – | –
COc1cc(NC(C)CCCNC(=O)/C=C/C(=O)Nc2cccc(Cl)c2)c2ncccc2c1 (stereo not drawn) [Compound 4c, (2E)-N-(3-Chlorophenyl)-N′-{4-[(6-methoxyquinolin-8-yl)amino]pentyl}but-2-enediamide] | 25 (≈ 53.5 µM) | 25 (≈ 53.5 µM) | 50 (≈ 107 µM) | 25 (≈ 53.5 µM) | 128 (≈ 274 µM) | 50 | 25 | > 50 | 3.8 | 3 | > 50 | > 50 | > 100 | > 100 | 187 to 188 | > 50 | > 50 | > 50 | > 50 | > 50 | EC50 (Yellow Fever Virus; [19]): > 50 µM
COc1cc(NC(C)CCCNC(=O)/C=C/C(=O)Nc2ccc(Cl)cc2)c2ncccc2c1 (stereo not drawn) [Compound 4d, (2E)-N-(4-Chlorophenyl)-N′-{4-[(6-methoxyquinolin-8-yl)amino]pentyl}but-2-enediamide] | 12.5 (≈ 26.8 µM) | > 100 | > 100 | 12.5 (≈ 26.8 µM) | 128 (≈ 274 µM) | >100 | 50 | > 50 | > 50 | > 50 | > 50 | > 50 | > 100 | > 100 | 223 to 226 | > 50 | – | – | – | – | –
COc1cc(NC(C)CCCNC(=O)/C=C/C(=O)Nc2cccc(C(F)(F)F)c2)c2ncccc2c1 (stereo not drawn) [Compound 4e, (2E)-N′-{4-[(6-Methoxyquinolin-8-yl)amino]pentyl}-N-[3-(trifluoromethyl)phenyl]but-2-enediamide] | 25 (≈ 49.9 µM) | > 100 | > 100 | 50 (≈ 99.9 µM) | 128 (≈ 256 µM) | >100 | 50 | > 50 | 3.1 | 5.3 | 3.1 | > 50 | > 100 | > 100 | 149 to 150 | > 50 | > 50 | > 50 | 4.2 | 2.7 | EC50 (Yellow Fever Virus; [19]): > 50 µM
